35 molecules from ChEMBL document CHEMBL5247596, “SAR studies toward discovery of emvododstat (PTC299), a potent dihydroorotate dehydrogenase (DHODH) inhibitor” (Eur J Med Chem, 2022) can be followed below.

A value given as a limit tells only on which side of the number the result lay.

The subject of one data set is MOLM-13. Nature of the data set: Cytotoxicity against human MOLM-13 cells assessed as reduction of cell viability incubated for 3 days by CellTiter-Glo assay. The class given is functional, cell-based. As to conditions: MOLM-13, 72 h, time 3 day. (In general: ATP-based viability assays read luminescence as a measure of living cells.)
The term CC50 denotes the concentration giving 50% cytotoxicity. In the case of `COc1ccc(C2c3[nH]c4ccc(Cl)cc4c3CCN2Cc2ccccc2)cc1` (stereo unspecified), the CC50 turned out to be 265 nM.
The same measure, in the same setting: to `CCOC(=O)N1CCc2c([nH]c3ccc(Cl)cc23)C1C1CCCCC1` (stereo unspecified) belongs 119 nM; to `COc1ccc([C@@H]2c3[nH]c4ccc(Cl)cc4c3CCN2C(=O)Oc2ccc(Cl)cc2)cc1`, over 1000 nM.
The same measure, in the same setting: to `COc1ccc(C2c3[nH]c4ccc(Cl)cc4c3CCN2S(=O)(=O)c2ccccc2)cc1` (stereo unspecified) belongs over 1000 nM; to `CCOC(=O)N1CCc2c([nH]c3ccc(C#N)cc23)C1c1ccc(OC)cc1` (stereo unspecified), 284 nM; to `CCOC(=O)N1CCc2c([nH]c3ccc(Cl)cc23)C1C` (stereo unspecified), over 1000 nM.
The same measure, in the same setting: for `COc1ccc(C2c3[nH]c4ccc(Cl)cc4c3CCN2C(=O)Oc2cccc(C)c2)cc1` (stereo unspecified) the value was 77 nM; for `COc1ccc(C2c3[nH]c4ccc(Cl)cc4c3CCN2C(=O)OC2CCC2)cc1` (stereo unspecified), 28 nM; for `COc1ccc(C2c3[nH]c4ccc(Cl)cc4c3CCN2C(=O)Oc2cccnc2)cc1` (stereo unspecified), 117 nM.
Consider `CCOC(=O)N1CCc2c([nH]c3ccc(OC)cc23)C1c1ccc(OC)cc1` (stereo unspecified), for which the half-maximal cytotoxic concentration (CC50) turned out to be 215 nM.
The same measure, in the same setting: for `CCOC(=O)N1CCc2c([nH]c3ccccc23)C1c1ccc(OC)cc1` (stereo unspecified) the value was over 1000 nM.
Take `COc1ccc(C2c3[nH]c4ccc(Cl)cc4c3CCN2C(=O)Oc2cccc(Cl)c2)cc1` (stereo unspecified): the CC50 was determined as 13 nM.
As to `COc1ccc(C2c3[nH]c4cccc(Cl)c4c3CCN2C(=O)Oc2ccc(Cl)cc2)cc1` (stereo unspecified), the cytotoxic concentration (CC50) was 389 nM.
The same measure, in the same setting: to `CCOC(=O)N1CCc2c([nH]c3ccc(Cl)cc23)C1c1ccccc1Cl` (stereo unspecified) belongs 384 nM; to `CCOC(=O)N1CCc2c([nH]c3ccc(F)cc23)C1c1ccc(OC)cc1` (stereo unspecified), 433 nM; to `COc1ccc(C2NCCc3c2[nH]c2ccc(Br)cc32)cc1` (stereo unspecified), 920 nM.
Take `CCOC(=O)N1CCc2c([nH]c3ccc(Cl)cc23)C1Cc1ccccc1` (stereo unspecified): the 50% cytotoxic concentration (CC50) is over 1000 nM.
Same read-out and setting: to `CCCOC(=O)N1CCc2c([nH]c3ccc(Cl)cc23)C1c1ccc(OC)cc1` (stereo unspecified) belongs 23 nM.
For `COc1ccc(C2c3[nH]c4ccc(Cl)cc4c3CCN2C(=O)Oc2cccc(F)c2)cc1` (stereo unspecified), the CC50 amounted to 27 nM.
The same measure, in the same setting: for `CCOC(=O)N1CCc2c([nH]c3ccc(Cl)cc23)C1c1ccccc1F` (stereo unspecified) the value was 36 nM.
Same read-out and setting: to `COc1ccc(OC(=O)N2CCc3c([nH]c4ccc(Cl)cc34)C2c2ccc(OC)cc2)cc1` (stereo unspecified) belongs 73 nM; to `CCNC(=S)N1CCc2c([nH]c3ccc(Cl)cc23)C1c1ccc(OC)cc1` (stereo unspecified), 477 nM; to `CCOC(=O)N1CCc2c([nH]c3ccc(Br)cc23)C1c1ccc(OC)cc1` (stereo unspecified), 11 nM.
As to `COc1ccc(C2c3[nH]c4ccc(Cl)cc4c3CCN2C(=O)OC2CCCC2)cc1` (stereo unspecified), the CC50 came out at 36 nM.
The same measure, in the same setting: for `CCOC(=O)N1CCc2c([nH]c3c(F)cccc23)C1c1ccc(OC)cc1` (stereo unspecified) the value was over 1000 nM.
Still for that read-out and setting: to `CCOC(=O)N1CCc2c([nH]c3c(C)cccc23)C1c1ccc(OC)cc1` (stereo unspecified) belongs over 1000 nM.
On to `CCN(CC)C(=O)N1CCc2c([nH]c3ccc(Cl)cc23)C1c1ccc(OC)cc1` (stereo unspecified), for which the CC50 is over 1000 nM.
Same read-out and setting: to `COc1ccc(C2c3[nH]c4ccc(Cl)cc4c3CCN2C(=O)OC2CC2)cc1` (stereo unspecified) belongs 37 nM; to `COc1ccc(C2c3[nH]c4ccc(Cl)cc4c3CCN2c2ccccc2)cc1` (stereo unspecified), 133 nM.
Still for that read-out and setting: for `CCNC(=O)N1CCc2c([nH]c3ccc(Cl)cc23)C1c1ccc(OC)cc1` (stereo unspecified) the value was 929 nM; for `COc1ccc(C2c3[nH]c4ccc(Cl)cc4c3CCN2C(=O)Oc2ccc(F)cc2)cc1` (stereo unspecified), 26 nM; for `CCN1CCc2c([nH]c3ccc(Cl)cc23)C1c1ccc(OC)cc1` (stereo unspecified), 278 nM.
The same measure, in the same setting: to `CCOC(=O)N1CCc2c([nH]c3ccc(Cl)cc23)C1c1ccc(F)cc1` (stereo unspecified) belongs 36 nM; to `COc1ccc(C2c3[nH]c4ccc(Cl)cc4c3CCN2C(=O)Oc2cncnc2)cc1` (stereo unspecified), 74 nM; to `COc1ccc(C2c3[nH]c4ccc(Cl)cc4c3CCN2C(=O)Oc2ccccc2F)cc1` (stereo unspecified), 59 nM.

Test system in another data set: not listed separately
Description: AUC([…]) in mouse at 10 mg/kg, po administered via gavage measured upto 24 hrs by LC/MS-MS analysis. The arrangement: dose 10 mg/kg, time < 24 hrs, route po. The note with it: in vivo. The class given is ADME, organism-based.
What is called AUC(0-t) is the area under the concentration-time curve up to a stated or last time point. The low end stands for less exposure, the high end for more exposure. As for `CCOC(=O)N1CCc2c([nH]c3ccc(Cl)cc23)C1c1ccc(F)cc1` (stereo unspecified), the AUC(0-t) at 24 h was determined as 200 ng·h/mL.
